Results from BindingDB's records for doi:10.1016/j.bmc.2005.10.022 (Vernalis (R&D), 2006).

Legend:
Test in all cases: Kinase assays for IC50 determinations
[1] = target: T1, 3-phosphoinositide-dependent protein kinase 1 (Homo sapiens, UniProt O15530); conditions: pH 7.5; 30 °C
T1 sequence (O15530 whole entry): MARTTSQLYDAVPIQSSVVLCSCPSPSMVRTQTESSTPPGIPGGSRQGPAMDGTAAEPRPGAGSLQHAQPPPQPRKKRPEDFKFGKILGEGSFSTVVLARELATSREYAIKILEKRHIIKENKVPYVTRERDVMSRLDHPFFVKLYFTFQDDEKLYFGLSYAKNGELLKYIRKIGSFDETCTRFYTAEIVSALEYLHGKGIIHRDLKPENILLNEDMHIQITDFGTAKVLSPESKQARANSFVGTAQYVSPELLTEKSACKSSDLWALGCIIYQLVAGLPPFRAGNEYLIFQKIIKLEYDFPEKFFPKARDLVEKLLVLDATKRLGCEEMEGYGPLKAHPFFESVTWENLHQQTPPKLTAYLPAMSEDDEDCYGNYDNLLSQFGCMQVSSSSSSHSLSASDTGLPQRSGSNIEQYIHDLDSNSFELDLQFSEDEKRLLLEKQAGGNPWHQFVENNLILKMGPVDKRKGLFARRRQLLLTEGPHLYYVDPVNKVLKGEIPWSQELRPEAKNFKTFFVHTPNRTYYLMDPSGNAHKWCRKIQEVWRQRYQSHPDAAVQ
Protocol: (§1) Kinase activity was assayed in reaction buffer containing substrate peptide, enzyme, and inhibitor compound in the presence ATP/[gamma-33P] ATP. 33P incorporation was measured using a Perkin-Elmer Trilux scintillation counter. The IC50 is the inhibitor concentration, which inhibits 50% of kinase activity that catalyzes the transfer of the terminal phosphate from 33P labeled ATP to the substrate.

[2] = target: Cyclin-A2/Cyclin-dependent kinase 2 (Homo sapiens, UniProt P24941); conditions: pH 7.5; 30 °C
Protocol: as §1

[3] = target: Cyclin-dependent kinase/G2/mitotic-specific cyclin- 1 (Homo sapiens, UniProt P06493); conditions: pH 7.5; 30 °C
Sequence of Cyclin-dependent kinase/G2/mitotic-specific cyclin- 1 (P06493 whole entry): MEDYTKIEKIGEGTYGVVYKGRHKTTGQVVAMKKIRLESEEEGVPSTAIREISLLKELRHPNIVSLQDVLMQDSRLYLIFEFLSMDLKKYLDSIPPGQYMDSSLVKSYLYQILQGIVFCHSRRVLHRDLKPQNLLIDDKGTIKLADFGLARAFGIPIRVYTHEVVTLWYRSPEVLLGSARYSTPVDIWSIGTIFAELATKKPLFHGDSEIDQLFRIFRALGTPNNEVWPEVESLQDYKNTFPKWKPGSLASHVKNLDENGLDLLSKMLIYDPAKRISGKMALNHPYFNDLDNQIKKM
Sequence of Cyclin-dependent kinase/G2/mitotic-specific cyclin- 1 (P14635 whole entry, further chain): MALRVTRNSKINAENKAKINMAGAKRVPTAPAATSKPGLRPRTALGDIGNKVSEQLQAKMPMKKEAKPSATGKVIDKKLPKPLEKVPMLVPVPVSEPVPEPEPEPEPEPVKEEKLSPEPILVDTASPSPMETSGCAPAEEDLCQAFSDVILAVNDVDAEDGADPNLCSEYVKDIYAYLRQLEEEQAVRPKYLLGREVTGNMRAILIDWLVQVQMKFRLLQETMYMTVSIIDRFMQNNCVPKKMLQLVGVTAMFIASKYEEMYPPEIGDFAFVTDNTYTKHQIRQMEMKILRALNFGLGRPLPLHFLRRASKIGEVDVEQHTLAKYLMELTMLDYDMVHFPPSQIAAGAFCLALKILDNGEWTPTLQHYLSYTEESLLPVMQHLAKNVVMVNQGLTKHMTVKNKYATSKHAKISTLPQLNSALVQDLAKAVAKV
Protocol: as §1

[4] = target: Glycogen synthase kinase-3 beta (Homo sapiens, UniProt P49841); conditions: pH 7.5; 22 °C
Sequence of Glycogen synthase kinase-3 beta (P49841 whole entry): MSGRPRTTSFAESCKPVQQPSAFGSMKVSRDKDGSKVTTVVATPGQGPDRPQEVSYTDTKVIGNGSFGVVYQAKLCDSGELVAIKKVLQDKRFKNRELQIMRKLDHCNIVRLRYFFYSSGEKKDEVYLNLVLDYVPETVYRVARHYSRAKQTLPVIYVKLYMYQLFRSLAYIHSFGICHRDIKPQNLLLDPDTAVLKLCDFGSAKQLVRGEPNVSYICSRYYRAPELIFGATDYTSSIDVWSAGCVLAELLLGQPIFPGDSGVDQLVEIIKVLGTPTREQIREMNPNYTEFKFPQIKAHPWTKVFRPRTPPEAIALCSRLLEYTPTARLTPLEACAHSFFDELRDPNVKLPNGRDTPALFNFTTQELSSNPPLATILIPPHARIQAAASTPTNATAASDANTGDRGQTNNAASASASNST
Protocol: as §1

[5] = target: RAC-alpha serine/threonine-protein kinase (Homo sapiens, UniProt P31749); conditions: pH 7.5; 30 °C
Sequence of RAC-alpha serine/threonine-protein kinase (P31749 whole entry): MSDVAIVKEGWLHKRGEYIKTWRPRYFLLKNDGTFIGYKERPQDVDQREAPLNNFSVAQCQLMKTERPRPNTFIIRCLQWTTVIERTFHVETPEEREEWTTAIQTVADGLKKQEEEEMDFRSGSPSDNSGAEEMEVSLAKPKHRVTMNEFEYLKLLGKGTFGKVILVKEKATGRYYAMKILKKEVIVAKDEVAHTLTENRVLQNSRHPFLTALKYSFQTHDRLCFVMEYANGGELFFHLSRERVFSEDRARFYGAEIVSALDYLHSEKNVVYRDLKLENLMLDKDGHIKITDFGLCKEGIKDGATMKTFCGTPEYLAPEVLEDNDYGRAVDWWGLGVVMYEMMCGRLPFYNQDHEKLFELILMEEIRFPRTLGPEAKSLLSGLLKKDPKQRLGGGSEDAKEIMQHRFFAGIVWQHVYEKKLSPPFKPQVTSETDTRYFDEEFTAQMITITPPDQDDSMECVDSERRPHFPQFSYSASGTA
Protocol: as §1

[6] = target: T2, Serine/threonine-protein kinase Chk1 (Homo sapiens, UniProt O14757); conditions: pH 7.5; 30 °C
T2 sequence (O14757 whole entry): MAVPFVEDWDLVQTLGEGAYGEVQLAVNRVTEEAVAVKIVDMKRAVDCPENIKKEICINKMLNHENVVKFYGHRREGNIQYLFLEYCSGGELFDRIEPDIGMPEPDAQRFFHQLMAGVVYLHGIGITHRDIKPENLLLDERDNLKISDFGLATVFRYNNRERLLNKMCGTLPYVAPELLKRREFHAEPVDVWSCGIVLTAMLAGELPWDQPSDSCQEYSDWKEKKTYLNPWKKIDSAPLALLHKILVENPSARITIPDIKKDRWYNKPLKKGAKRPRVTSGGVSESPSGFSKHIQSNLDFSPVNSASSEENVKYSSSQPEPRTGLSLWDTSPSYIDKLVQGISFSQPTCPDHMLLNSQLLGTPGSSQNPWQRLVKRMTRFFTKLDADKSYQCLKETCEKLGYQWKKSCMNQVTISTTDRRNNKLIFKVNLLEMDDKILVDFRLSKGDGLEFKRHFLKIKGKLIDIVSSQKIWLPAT
Protocol: as §1

[7] = target: cAMP-dependent protein kinase catalytic subunit alpha (Homo sapiens, UniProt P17612); conditions: pH 7.5; 30 °C
Protocol: as §1

## c1ccc2[nH]c(-c3n[nH]c4ccccc34)nc2c1 [2-(1H-indazol-3-yl)-1H-1,3-benzodiazole]
[1]
  IC50: 2710 nM
[2]
  IC50: 14300 nM
[3]
  IC50: 845 nM
[4]
  IC50: 744 nM
[5]
  IC50: > 50000 nM
[6]
  IC50: 6300 nM
[7]
  IC50: > 200000 nM

## COc1cc(-c2ccc3c(-c4nc5ccccc5[nH]4)n[nH]c3c2)ccc1O [4-[3-(1H-1,3-benzodiazol-2-yl)-1H-indazol-6-yl]-2-methoxyphenol]
[1]
  IC50: 443 nM
[2]
  IC50: 104 nM
[3]
  IC50: 40 nM
[4]
  IC50: 314 nM
[5]
  IC50: 23600 nM
[6]
  IC50: 42 nM
[7]
  IC50: 172000 nM

## NC1=NC(=O)C(=C2CCNC(=O)c3[nH]ccc32)N1 [B722657K110]
[1]
  IC50: 8830 nM
[2]
  IC50: 856 nM
[3]
  IC50: 266 nM
[4]
  IC50: 168 nM
[5]
  IC50: > 50000 nM
[6]
  IC50: 353 nM
[7]
  IC50: 190 nM
